In patent US6555547B1, “Method for treating a patient with neoplasia by treatment with a vinca alkaloid derivative” (Cell Pathways, Inc., priority 2000, dated 2003):
pIC50: −log10 of the molar value. Like-named read-outs stand apart in the source and are kept apart here.

Tests used:
[1] = target: T1, cGMP binding sites of GST-cGB-PDE5 fusion protein (Homo sapiens, UniProt O76074); assay: cGMP binding assay; settings: for Competition with cGMP for binding of GST-cGB-PDE5 at high concentration: 100 μM, cGMP 2 μM
T1 construct: made in house; host or cells: E. coli BL21 (DE3)

[2] = target: T2, PDE Peak A (PDE5) from SW480 cells (Homo sapiens, UniProt O76074); assay: Inhibition of cGMP hydrolysis by PDE Peak A from SW480; format: biochemical
T2 construct: endogenous in cells; host or cells: SW480 colon cancer cells; DEAE-Trisacryl M fraction of the 105,000 g supernatant

[3] = target: T3, novel cGMP-specific PDE Peak B (Section IIB) from SW480 cells (Homo sapiens, UniProt O00408); assay: Inhibition of cGMP hydrolysis by novel PDE Peak B from SW480; format: biochemical
T3 construct: IC50 Peak B (μM); native enzyme
T3 sequence (O00408 whole entry): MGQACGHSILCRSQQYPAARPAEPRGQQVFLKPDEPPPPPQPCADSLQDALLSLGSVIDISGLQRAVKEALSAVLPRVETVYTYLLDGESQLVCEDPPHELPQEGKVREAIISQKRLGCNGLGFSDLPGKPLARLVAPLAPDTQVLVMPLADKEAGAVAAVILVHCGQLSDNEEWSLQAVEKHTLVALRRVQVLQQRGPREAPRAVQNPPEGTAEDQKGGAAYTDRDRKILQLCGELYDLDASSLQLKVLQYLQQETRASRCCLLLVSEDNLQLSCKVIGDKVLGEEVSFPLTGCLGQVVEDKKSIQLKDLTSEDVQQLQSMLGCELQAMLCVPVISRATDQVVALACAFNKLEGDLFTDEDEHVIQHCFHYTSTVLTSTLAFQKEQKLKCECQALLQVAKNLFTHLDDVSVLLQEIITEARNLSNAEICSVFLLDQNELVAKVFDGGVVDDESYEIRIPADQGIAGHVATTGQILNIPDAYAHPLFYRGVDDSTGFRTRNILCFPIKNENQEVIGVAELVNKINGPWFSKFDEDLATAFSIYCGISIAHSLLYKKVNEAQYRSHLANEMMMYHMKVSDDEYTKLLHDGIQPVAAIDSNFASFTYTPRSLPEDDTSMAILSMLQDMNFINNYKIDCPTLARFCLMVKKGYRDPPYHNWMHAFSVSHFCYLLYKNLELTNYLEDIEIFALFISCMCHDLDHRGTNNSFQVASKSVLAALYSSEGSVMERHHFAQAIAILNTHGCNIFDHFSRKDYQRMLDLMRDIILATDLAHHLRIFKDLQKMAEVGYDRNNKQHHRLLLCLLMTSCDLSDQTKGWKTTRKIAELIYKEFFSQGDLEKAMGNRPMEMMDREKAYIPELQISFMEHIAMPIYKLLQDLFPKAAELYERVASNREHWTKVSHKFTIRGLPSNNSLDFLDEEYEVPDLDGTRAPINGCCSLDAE

[4] = test system: novel cGMP-specific PDE Peak B (Section IIB) from SW480 cells; assay: as above; format: biochemical, human
HT-29 cells [5] = assay: Apoptosis and necrosis, morphological (acridine orange/ethidium bromide); format: cell-based, human; settings: HT-29, treated 6 days
From the text: Following treatment with a compound, cultures can be assayed for apoptosis and necrosis by florescent microscopy following labeling with acridine orange and ethidium bromide. The method for measuring apoptotic cell number has previously been described by Duke & Cohen, “Morphological And Biochemical Assays Of Apoptosis,” Current Protocols In Immunology, Coligan et al., eds., 3.17.1-3.17.16 (1992), which is incorporated herein by reference.
For example, floating and attached cells can be collected by trypsinization and washed three times in PBS. Aliquots of cells can be centrifuged. The pellet can then be re-suspended in media and a dye mixture containing acridine orange and ethidium bromide prepared in PBS and mixed gently. The mixture can then be placed on a microscope slide and examined for morphological features of apoptosis.
Reference compounds and test compounds were analyzed for their novel PDE inhibitory activity in accordance with the protocols for the assay, supra. […] Apoptotic and necrotic cell death was determined previously (Duke and Cohen, In: Current Protocols in Immunology, 3.17.1-3.17.16, New York, John Wiley and Sons, 1992). […]
The apoptosis inducing activity for a series of phosphodiesterase inhibitors was determined. […] Apoptosis and necrosis were determined morphologically after acridine orange and ethidium bromide labeling in accordance with the assay described, supra.

HT-29 cells [6] = assay: Growth inhibition assay, SRB; format: cell-based, human
[7] = test system: cGMP and cAMP in HT-29 cells; assay: Cyclic nucleotide levels in HT-29 cells by radioimmunoassay; format: cell-based, human; settings: HT-29 cells treated 30 minutes
[8] = test system: premalignant lesions in mouse mammary gland organ culture; assay: Mammary gland organ culture model
From the text: Test compounds identified by the above methods can be tested for antineoplastic activity by their ability to inhibit the incidence of pre-neoplastic lesions in a mammary gland organ culture system. This mouse mammary gland organ culture technique has been successfully used by other investigators to study the effects of known antineoplastic agents such as certain NSAIDs, retinoids, tamoxifen, selenium, and certain natural products, and is useful for validation of the screening method of the present invention.
For example, female BALB/c mice can be treated with a combination of estradiol and progesterone daily, in order to prime the glands to be responsive to hormones in vitro. The animals are sacrificed, and thoracic mammary glands are excised aseptically and incubated for ten days in growth media supplemented with insulin, prolactin, hydrocortisone, and aldosterone. DMBA (7,12-dimethylbenz(a)anthracene) is added to medium to induce the formation of premalignant lesions. […]
The extent of the area occupied by the mammary lesions can be quantitated by projecting an image of the gland onto a digitation pad. […] The space covered by each of the non-regressed structures is also outlined on the digitization pad and quantitated by the computer. […]

[9] = test system: Calu-6 adenocarcinoma cell line; assay: Cell growth, alone and in combination with vinca alkaloid; format: cell-based, human; settings: Calu-6, 1-hour exposure, 0.01 mcg/ml
Procedure: Exisulind and Compound I were analyzed using two human lung cancer cell lines; H460, a large cell carcinoma with a doubling time of 16 hours, and Calu-6, an adenocarcinoma with a doubling time of 21 hours. Exisulind and Compound I were analyzed alone and in combination with the vinca alkaloid, Navelbine™ vinorelbine. The cytotoxic agents were administered for 1 hour, while exisulind and Compound I were administered for either 1 hour or given as a continuous exposure.
Cells were plated on day 0 and allowed to attach. On day 1, the cells were exposed to one of the cytotoxic agents dissolved in media pre-warmed to 37° C. and incubated at 37° C. for 1 hour. The cells were then washed twice and re-fed pre-warned media with or without either exisulind or Compound I and incubated for one hour at 37° C. After the one-hour incubation, the cells were washed twice, re-fed, and returned to the incubator; the continuous exposure cultures were not washed and re-fed. Appropriate controls were included for each condition. […] All data points were done in triplicate and the mean graphed as a percent of control growth.
Exisulind and Compound I were first dissolved in DMSO and brought to the desired concentrations by slowly adding warm media to the drug-DMSO solution to prevent precipitation.

For `CCCCOC1C2OP(=O)(O)OCC2OC1n1cnc2c(N)ncnc21` (stereo not shown) [2′-O-butyl-cAMP], the “Competition with cGMP for binding of GST-cGB-PDE5” value ([1]; 3H-cGMP 2 μM) was “did not compete with cGMP in binding”.

`COc1cc(/C=C2/C(C)=C(CC(=O)NCc3ccccc3)c3cc(F)ccc32)cc(OC)c1OC` [Compound E, (Z)-5-Fluoro-2-methyl-1-(3,4,5-trimethoxybenzylidene)-3-indenylacetamide, N-benzyl] was tested, and the “Competitive (with cGMP) binding/inhibition, Peak A” value [2] was “does competitively (with cGMP) bind to PDE 5 (i.e., Peak A)”, the “Competitive (with cGMP) binding/inhibition, Peak B” value [3] was “also competitively (with cGMP) binds to PDE Peak B” and the pIC50 [3] was 6.43. For the same molecule, the “Ratio (IC50 PeakA/Peak B)” value [4] was 1.0 and the “Competition with cGMP for binding of GST-cGB-PDE5” value ([1]; 3H-cGMP 2 μM) was “do not bind to the cGMP binding sites of PDE5”.

In the case of `COCc1nc2c([nH]1)c(=O)n(C)c(=O)n2CC(C)C` [8-methoxy-IBMX], the “% Apoptosis” value (HT-29 cells [5]) was 2%, the “% Necrosis” value (HT-29 cells [5]) was 1% and the pIC50 (HT-29 cells [6]; HT-29, 6 days, SRB assay) was under 3.70.

For `CCCCOC1C2OP(=O)(O)OCC2OC1n1cnc2c(=O)[nH]c(N)nc21` (stereo not shown) [2′-O-butyl-cGMP], the “Competition with cGMP for binding of GST-cGB-PDE5” value ([1]; 3H-cGMP 2 μM) was “did not compete with cGMP in binding”.

`COc1cc(C=C2C(C)=C(CC(=O)O)c3cc(F)ccc32)cc(OC)c1OC` [Compound B, (Z)-5-Fluoro-2-methyl-1-(3,4,5-trimethoxybenzylidene)-3-acetic acid] was tested, and the “Competition with cGMP for binding of GST-cGB-PDE5” value ([1]; 3H-cGMP 2 μM) was “do not bind to the cGMP binding sites of PDE5”.

Work on `CCOC(=O)C1=C[C@]2(CC)CCCN3CCc4c(n1c1ccccc41)[C@@H]32` [Vinpocetine] yielded a pIC50 [3] of under 4.00.

`O=c1ccn([C@@H]2O[C@@H]3COP(=O)(O)O[C@H]3[C@H]2O)c(=O)[nH]1` [cUMP, cyclic UMP] was tested, and the “Competition with cGMP for binding of GST-cGB-PDE5” value ([1]; 3H-cGMP 2 μM) was “did not compete with cGMP in binding”.

For `COc1ccc(C2CNC(=O)C2)cc1OC1CCCC1` (stereo not shown) [Rolipram], the pIC50 [3] was under 4.00 and the “Levels of cAMP” value [7] was “increased cAMP”.

`CCCOc1ccccc1-c1nc2nn[nH]c2c(=O)[nH]1` [Zaprinast, zaprinast] was tested, and the “Competition with cGMP for binding of GST-cGB-PDE5” value ([1]; 3H-cGMP 2 μM) was “do not bind to the cGMP binding sites of PDE5”.

For `Nc1ccn([C@@H]2O[C@@H]3COP(=O)(O)O[C@H]3[C@H]2O)c(=O)n1` [cCMP, cyclic CMP], the “Competition with cGMP for binding of GST-cGB-PDE5” value ([1]; 3H-cGMP 2 μM) was “did not compete with cGMP in binding”.

In the case of `CCCc1nn(C)c2c(=O)[nH]c(-c3cc(S(=O)(=O)N4CCN(C)CC4)ccc3OCC)nc12` [Sildenafil, sildenafil], the “Inhibition of Peak A activity” value [2] was “inhibited activity of Peak A”.

For `CC1(C)C(=O)Nc2ccc(C3=NNC(=O)CC3)cc21` [Indolidan], the pIC50 [3] was under 4.00 and the “Ratio (IC50 PeakA/Peak B)” value [4] was under 0.31.

In the case of `O=c1[nH]cnc2c1ncn2[C@@H]1O[C@@H]2COP(=O)(O)O[C@H]2[C@H]1O` [Cyclic IMP], the “Competition with cGMP for binding of GST-cGB-PDE5 at high concentration” value [1] was “can partially compete with cGMP”.

“5-fluoro-2-methyl-1-(p-methylsulfinylbenzylidene)-3-indenylacetic acid [Sulindac sulfide]” was tested, and the “Competitive (with cGMP) binding/inhibition, Peak A” value [2] was “competitively inhibited both Peaks A and B phosphodiesterases at the same potency”, the “Increase in levels of cGMP” value [7] was “greater than 50%” and the “Levels of cAMP” value [7] was “unaffected”. The “Growth inhibition and apoptosis time course” value (HT-29 cells [6]; HT-29, 120 μM, viable cells by trypan blue, apoptosis morphological) was “capable of inhibiting tumor cell growth, and that the effect is accompanied by an increase in apoptosis”, the “Inhibition of premalignant lesions in mammary gland organ culture” value [8] was “inactive” and the “Competition with cGMP for binding of GST-cGB-PDE5” value ([1]; 3H-cGMP 2 μM) was “do not bind to the cGMP binding sites of PDE5”.

In the case of `Nc1ncnc2c1ncn2[C@@H]1O[C@@H]2COP(=O)(O)O[C@H]2[C@H]1O` [Cyclic AMP], the “Competition with cGMP for binding of GST-cGB-PDE5” value [1] was “did not compete with cGMP in binding”.

`CCC1=C[C@@H]2CN(C1)Cc1c([nH]c3ccccc13)[C@@](C(=O)OC)(c1cc3c(cc1OC)N(C)[C@H]1[C@@](O)(C(=O)OC)[C@H](OC(C)=O)[C@]4(CC)C=CCN5CC[C@]31[C@@H]54)C2` [vinca alkaloid, vinorelbine] was tested, and the “% of control growth” value [9] was 52% and the activity at 0.01 µg/mL ([9]; Homo sapiens, Calu-6, 1 h, read-out: % of control growth) was 56%.

With `Nc1nc2c(nc(Br)n2[C@@H]2O[C@@H]3COP(=O)(O)O[C@H]3[C@H]2O)c(=O)[nH]1` [Compound 8-bromo-cGMP, 8-bromo-cGMP] the “Competition with cGMP for binding of GST-cGB-PDE5 at high concentration” value [1] was “can partially compete with cGMP”.
